Five compounds from patent publication US20140121178A1, “METHOD AND IMPROVED PHARMACEUTICAL COMPOSITION FOR IMPROVING THE ABSORPTION OF AN ESTER PRODRUG” (ACENDA PHARMA INC., priority 2011, published 2014) can be followed below.

Where a name gives a salt, the structure may show the parent alone.

A short description of data set [1]: Rat oral pharmacokinetics of capecitabine with or without triethyl citrate. Type of data set: in vivo, rats. The following applies: capecitabine in rat plasma, capecitabine 5 mg/kg, triethyl citrate 45 mg/kg where given. The procedure:
Capecitabine is an ester prodrug, which is hydrolyzed mainly by CE2 in the GI track and CE1 in the liver and then converted by two enzymes to its active drug (5-fluorouracil) in the tumor after oral administration of capecitabine to cancer patients. […] Each rat received capecitabine (5 mg/kg) in DMSO or capecitabine (5 mg/kg) in DMSO/triethyl citrate (45 mg/kg).

The nature of data set [2]: Rat oral pharmacokinetics of capecitabine with or without triethyl citrate/triacetin. The note with it: capecitabine in rat plasma, capecitabine 5 mg/kg, triethyl citrate 22.5 mg/kg + triacetin 22.5 mg/kg where given. It counts as in vivo, rats. The procedure: In a rat study similar to the study described above, each rat received capecitabine (5 mg/kg) in DMSO or capecitabine (5 mg/kg) in DMSO/triethyl citrate (22.5 mg/kg)/triacetin (22.5 mg/kg).

Data set [3] in a line: in vivo. The following applies: male, Sprague-Dawley, rat, po, 30 mg/kg. The protocol:
Male rats (Sprague-Dawley, 300-400 g) were surgically implanted with jugular-vein cannulas one day prior to dosing and fasted overnight (about 18-20 hours) prior to dosing. Water was available ad libitum throughout the experiment. Dosing solutions of olmesartan medoxomil (5 mg/ml) were prepared in a vehicle of DMSO/PEG400 (10/90, v/v) or DMSO/PEG400/triacetin (10/80/10, v/v). Single oral doses of the olmesartan medoxomil and olmesartan medoxomil/triacetin were each administered separately to a group of 3 male rats by gavage. Each rat received olmesartan medoxomil (5 mg/kg) in DMSO/PEG400 (10/90, v/v) or olmesartan medoxomil (5 mg/kg) in DMSO/PEG400/triacetin (10/80/10, v/v).
Blood samples (0.15 ml/rat) were collected from each rat via the jugular-vein cannula at 0, 0.25, 0.5, 1, 2, 4, 6, 8, and 24 hours after dosing. Plasma was separated from blood cells by centrifugation and frozen at −20° C. until analysis. […] A plasma concentration-time curve was plotted based on the obtained data.

Data set [4] is described as follows: Rat oral pharmacokinetics of clopidogrel bisulfate (3 mg/kg) with or without triethyl citrate/triacetin. It counts as in vivo, rats. The following applies: Sprague-Dawley, plasma. The procedure: Serial plasma samples were obtained from each rat and concentrations of clopidogrel and clopidogrel acid in the plasma samples were determined by LC-MS/MS.
Data set [5] in a line: Rat oral pharmacokinetics of olmesartan medoxomil with or without triacetin. It counts as in vivo, rats (Sprague-Dawley). The note with it: rats, oral administration, plasma LC-MS/MS. The procedure:
Water was available ad libitum throughout the experiment. Dosing solutions of olmesartan medoxomil (5 mg/ml) were prepared in a vehicle of DMSO/PEG400 (10/90, v/v) or DMSO/PEG400/triacetin (10/80/10, v/v). […] Each rat received olmesartan medoxomil (5 mg/kg) in DMSO/PEG400 (10/90, v/v) or olmesartan medoxomil (5 mg/kg) in DMSO/PEG400/triacetin (10/80/10, v/v).

Data set [6] relates to CE from porcine liver. Nature of the data set: In vitro CE-mediated hydrolysis of clopidogrel in the presence of triacetin, triethyl citrate or both. Type of data set: in vitro ADME. The following applies: Table 2.
The subject of data set [7] is CE from porcine liver. Nature of the data set: In vitro CE-mediated hydrolysis of olmesartan medoxomil in the presence of ester excipients. Type of data set: in vitro ADME. The note with it: for effect on CE-mediated hydrolysis of olmesartan medoxomil (in words): compared with lecithin, Table 1; for preliminary screen of ester excipients for impeding hydrolysis of olmesartan medoxomil by CE in vitro: preliminary results. The procedure:
Various known pharmaceutical ester excipients including triacetin, glyceryl tristearate, triethyl citrate, lecithin, tri-n-butyl citrate, acetyl triethyl citrate, and acetyl tri-n-butyl citrate were respectively tested to determine whether any of them impedes hydrolysis of olmesartan medoxomil by CE in vitro.
Test solutions (a) to (f) were prepared respectively as follows: (a) 10 μM of olmesartan medoxomil dissolved in 10% DMSO (dimethyl sulfoxide)/90% PEG400 (w/w, stability control); (b) 10 μM of olmesartan medoxomil dissolved in 10% DMSO/90% PEG400 (w/w, blank control) (c) 10 μM of olmesartan medoxomil dissolved in 10% DMSO/12% triacetin/78% PEG400 (w/w/w); (d) 10 μM of olmesartan medoxomil dissolved in 10% DMSO/12% triethyl citrate/78% PEG400 (w/w/w); (e) 10 μM of olmesartan medoxomil dissolved in 10% DMSO/12% lecithin/78% PEG400 (w/w/w); and (f) 10 μM of olmesartan medoxomil dissolved in 10% DMSO/6% triacetin/6% triethyl citrate/78% PEG400 (w/w/w/w).
CE from porcine liver (17 units/mg, available from Sigma-Aldrich) was dissolved in simulated intestinal fluid (SIF, pH=6.8) to yield a CE solution (17 units/ml). SIF was prepared by dissolving 0.6805 g of KH2PO4 and 0.0896 g of NaOH in 100 ml of de-ionized water.
Each 70 μl of olmesartan medoxomil solution (i.e., solutions (a)-(f)) was mixed with 70 μl of SIF and thereby forming mixtures (a) to (f). Each of the mixtures (a) to (f) was transferred to one well of a 96-well plate, and 60 μl each of the CE solution was added to respective wells containing mixtures (b) to (f) to initiate the reaction. In addition, sixty (60) μl of SIF without CE was added to mixture (a). This incubation mixture without CE was used as a stability control to determine the chemical stability of olmesartan medoxomil in the incubation mixture. The mixtures were incubated for 20 minutes under the air at 37° C. with constant shaking on a temperature-controlled heating block.
At the end of the 20-minute incubation, 100 μl of ice-cold acetonitrile was added to each well to terminate the reaction. Each mixture was vortexed and centrifuged at 15,000×g for 20 min at room temperature. The supernatants were tested in HPLC/UV analysis, in which the concentration of olmesartan medoxomil in each mixture was measured. Percentages (%) of olmesartan medoxomil remaining in the mixtures were calculated based on the obtained data.

[8] abbreviates: mean n=3, read-out: AUC0-24 hr of capecitabine.

One may read the Cmax as the maximum level reached in the sampled fluid or tissue. By Tmax is commonly meant the time from dosing to the highest level. Turning to `CCCCCOC(=O)Nc1nc(=O)n([C@@H]2O[C@H](C)[C@@H](O)[C@H]2O)cc1F` [Capecitabine, capecitabine], the values for the Cmax in data set [1] (mean n=3) and in data set [2] (mean n=3) were 11.8 ng/mL and 8.9 ng/mL, respectively. Moreover, the Tmax in data set [1] (mean n=3) was determined as 48 min; in data set [2] (mean n=3), 24 min. In addition, the AUC(0-t) worked out at 34 ng·h/mL in data set [1] (setting [8]) and 15 ng·h/mL in data set [2] (setting [8]).
With `COC(=O)[C@H](c1ccccc1Cl)N1CCc2sccc2C1` [Clopidogrel Bisulfate, clopidogrel bisulfate], in data set [3], the AUC(0-t) amounted to 28 ng·h/mL, the Cmax turned out to be 7.3 ng/mL and the Tmax was 4.1 h. Besides, in data set [4], the Cmax was 0.8 ng/mL and the Tmax is 2.9 h. The AUC(0-t) in data set [4] (read-out: AUC0-24 hr of clopidogrel) was found to be 2 ng·h/mL.
As for `CCCc1nc(C(C)(C)O)c(C(=O)OCc2oc(=O)oc2C)n1Cc1ccc(-c2ccccc2-c2nnn[nH]2)cc1` [Olmesartan Medoxomil, olmesartan medoxomil], the “hydrolysis of olmesartan medoxomil to olmesartan after absorption” value in data set [5] is recorded as “completely hydrolyzed to olmesartan”.
As to `CC(=O)OCC(COC(C)=O)OC(C)=O` [triacetin], in data set [6], the “effect on CE-mediated hydrolysis of clopidogrel (in words)” value is on record as “retard CE-mediated hydrolysis of clopidogrel”. In addition, in data set [7], the “effect on CE-mediated hydrolysis of olmesartan medoxomil (in words)” value is listed as “retards CE-mediated hydrolysis of olmesartan medoxomil” and the “preliminary screen of ester excipients for impeding hydrolysis of olmesartan medoxomil by CE in vitro” value is given as “promising candidates”.
On to `CCOC(=O)CC(O)(CC(=O)OCC)C(=O)OCC` [triethyl citrate], for which, in data set [6], the “effect on CE-mediated hydrolysis of clopidogrel (in words)” value is “retard CE-mediated hydrolysis of clopidogrel”; the “effectiveness in impeding CE-mediated hydrolysis of clopidogrel compared with triacetin and lecithin (in words)” value is “more effective in impeding CE-mediated hydrolysis of clopidogrel than triacetin and lecithin”. For the same compound, in data set [7], the “effect on CE-mediated hydrolysis of olmesartan medoxomil (in words)” value is on record as “retards CE-mediated hydrolysis of olmesartan medoxomil” and the “preliminary screen of ester excipients for impeding hydrolysis of olmesartan medoxomil by CE in vitro” value is “promising candidates”.
